Measured values: US20020173452A1, “Cytostatic-glycoconjugates having specifically cleavable linking units” (priority 2000, published 2002)
pIC50: −log10 of the molar value. Where a SMILES comes first, the peptide text is derived from it. [ ]: non-standard residue; d: D form. The star is where a group is joined. ξ: configuration not given here. Camptothecin(20R,20-O) = CC[C@]1(O*)C(=O)OCc2c1cc1n(c2=O)Cc2cc3ccccc3nc2-1; X5 = C[C@H]1O[C@@H](Oc2ccc(NC(=S)*)cc2)[C@@H](O)[C@@H](OCC(N)=O)[C@H]1O; X9 = C[C@H]1O[C@@H](Oc2ccc(NC(=S)*)cc2)[C@@H](O)[C@@H](OCCO)[C@H]1O; X8 = C[C@H]1OC(Oc2ccc(NC(=S)*)cc2)[C@@H](O)[C@@H](OCC(=O)O)[C@H]1O; X4 = CO[C@H]1[C@H](O)[C@@H](Oc2ccc(NC(=S)*)cc2)O[C@@H](C)[C@H]1O; X6 = CO[C@@H]1[C@H](O)[C@H](Oc2ccc(NC(=S)*)cc2)O[C@H](C)[C@@H]1O; X1 = CO[C@H]1[C@@H](O)[C@@H](C)OC(Oc2ccc(NC(=S)*)cc2)[C@H]1O; X7 = OC[C@H]1OC(Oc2ccc(NC(=S)*)cc2)[C@@H](O)[C@@H](O)[C@H]1O; X2 = CC[C@@]1(O*)C(=O)OCc2c1cc1n(c2=O)Cc2cc3ccccc3nc2-1; Ile(3ξ) = CCC(C)[C@H](N)C(=O)O; ξV = CC(C)C(N)C(=O)O; ξP = O=C(O)C1CCCN1

Legend:
Experiment in all cases: Growth inhibition test (MTT) for cytotoxic properties on tumour cell lines
Type in all cases: cell-based
[1] = system: HT29 human large intestine cell line; details: HT29 cells, growth checked after day 6, read-out: IC50 of the cytotoxic action on tumour cell lines, HT29
Procedure: (§1) A: Growth Inhibition Test for the Determination of the Cytotoxic Properties on Various Tumour Cell Lines
(§2) The human large intestine cell lines SW 480 and HT29 (ATCC No. CCL 228 and HTB38 and the mouse melanoma cell line B16F10 (CRL 6475) were grown to confluence in Roux dishes in RPMI 1640 medium with addition of 10% FCS. They were then trypsinized and taken up in RPMI plus 10% FCS to a cell count of 50,000 cells or, for B16F10, 20,000 cells per ml. 100 μl of cell suspension/well were added to a 96 microwell plate and incubated at 37° C. for 1 day in a CO2 incubator. A further 100 μl of RPMI medium and 1 μl of DMSO were then added with the test substances. The growth was checked after day 6. For this, 25 μl of MTT solution (3-(4,5-dimethylthiazol-2-yl)-2,5-diphenyltetrazolium bromide) was added to each well at a starting concentration of 5 mg/ml of H2O. The plate was incubated at 37° C. for 5 hours in a CO2 incubator. The medium was then aspirated and 100 μl of 1-propanol/well were added. After shaking with 100 μl of H2O for 30 min, the extinction was measured at 595 nm using a Multiplate Reader (BIO-RAD 3550-UV).
(§3) The cytostatic action is indicated in Table 1 as an IC50 value, in each case for the individual cell lines.

[2] = system: SW 480 human large intestine cell line; details: SW480 cells, growth checked after day 6, read-out: IC50 of the cytotoxic action on tumour cell lines, SW480
Procedure: as §1, §2, §3

[3] = system: B16F10 mouse melanoma cell line; details: B16F10 cells, growth checked after day 6, read-out: IC50 of the cytotoxic action on tumour cell lines, B16F10
Procedure: as §1, §2, §3

Compound: CC[C@@]1(OC(=O)[C@@H](NC(=O)[C@@H](C)NC(=O)[C@H](CC(C)C)NC(=O)CNC(=O)[C@H](CC(C)C)NC(=O)[C@@H]2CCCN2C(=S)Nc2ccc(O[C@H]3O[C@@H](C)[C@@H](O)[C@@H](OC)[C@@H]3O)cc2)C(C)C)C(=O)OCc2c1cc1n(c2=O)Cc2cc3ccccc3nc2-1 [Example 14] (X4-PLGL[dA]V-X2)
- pIC50 [1]: 6.05
- pIC50 [2]: 6.15
- pIC50 [3]: 5.70

Compound: CC[C@@]1(OC(=O)[C@@H](NC(=O)[C@@H](NC(=O)[C@H](CC(C)C)NC(=O)CNC(=O)[C@H](CC(C)C)NC(=O)[C@@H]2CCCN2C(=S)Nc2ccc(O[C@H]3O[C@@H](C)[C@@H](O)[C@@H](OC)[C@@H]3O)cc2)C(C)C)C(C)C)C(=O)OCc2c1cc1n(c2=O)Cc2cc3ccccc3nc2-1 [Example 15] (X4-PLGLVV-X2)
- pIC50 [1]: 7.00
- pIC50 [2]: 7.10
- pIC50 [3]: 6.40

Compound: CC[C@@]1(OC(=O)[C@H](NC(=O)[C@@H](CC(N)=O)NC(=O)[C@@H](CC(C)C)NC(=O)CNC(=O)[C@H](CC(C)C)NC(=O)[C@H]2CCCN2C(=S)Nc2ccc(OC3O[C@H](C)[C@H](O)[C@H](OCC(=O)O)[C@@H]3O)cc2)C(C)C)C(=O)OCc2c1cc1n(c2=O)Cc2cc3ccccc3nc2-1 (stereo partly drawn) [Example 23] (X8-[dP]LG[dL][dN][dV]-X2)
- pIC50 [1]: 6.92
- pIC50 [2]: 6.70
- pIC50 [3]: 6.10

Compound: CC[C@@]1(OC(=O)[C@H](NC(=O)[C@@H](Cc2c[nH]cn2)NC(=O)CNC(=O)[C@H](CC(C)C)NC(=O)[C@H]2CCCN2C(=S)Nc2ccc(OC3O[C@H](C)[C@H](O)[C@H](OC)[C@@H]3O)cc2)C(C)C)C(=O)OCc2c1cc1n(c2=O)Cc2cc3ccccc3nc2-1 (stereo partly drawn) [Example 1]
- pIC50 [1]: 7.15
- pIC50 [2]: 6.82
- pIC50 [3]: 6.82

Compound: CC[C@@]1(OC(=O)[C@H](NC(=O)[C@@H](CSC)NC(=O)[C@@H](CC(C)C)NC(=O)CNC(=O)[C@H](CC(C)C)NC(=O)[C@H]2CCCN2C(=S)Nc2ccc(OC3O[C@H](C)[C@H](O)[C@H](OC)[C@@H]3O)cc2)C(C)C)C(=O)OCc2c1cc1n(c2=O)Cc2cc3ccccc3nc2-1 (stereo partly drawn) [Example 8] (X1-[dP]LG[dL][dC](Me)[dV]-X2)
- pIC50 [1]: 7.40
- pIC50 [2]: 7.30
- pIC50 [3]: 6.82

Compound: CC[C@@]1(OC(=O)[C@H](NC(=O)[C@@H](Cc2c[nH]cn2)NC(=O)[C@@H](CC(C)C)NC(=O)CNC(=O)[C@H](CC(C)C)NC(=O)[C@H]2CCCN2C(=S)Nc2ccc(OC3O[C@H](C)[C@H](O)[C@H](OC)[C@@H]3O)cc2)C(C)C)C(=O)OCc2c1cc1n(c2=O)Cc2cc3ccccc3nc2-1 (stereo partly drawn) [Example 13] (X1-[dP]LG[dL][dH][dV]-X2)
- pIC50 [1]: 7.15
- pIC50 [2]: 7.00
- pIC50 [3]: 6.70

Compound: CC[C@]1(OC(=O)[C@H](NC(=O)[C@@H](CC(N)=O)NC(=O)[C@@H](CC(C)C)NC(=O)CNC(=O)[C@H](CC(C)C)NC(=O)[C@H]2CCCN2C(=S)Nc2ccc(O[C@@H]3O[C@H](C)[C@H](O)[C@H](OCCO)[C@@H]3O)cc2)C(C)C)C(=O)OCc2c1cc1n(c2=O)Cc2cc3ccccc3nc2-1 [Example 25] (X9-[dP]LG[dL][dN][dV]-{Camptothecin(20R,20-O)})
- pIC50 [1]: 6.82
- pIC50 [2]: 6.74
- pIC50 [3]: 6.10

Compound: CC[C@@]1(OC(=O)[C@@H](NC(=O)[C@@H]2CCCN2C(=O)[C@H](CC(C)C)NC(=O)CNC(=O)[C@H](CC(C)C)NC(=O)[C@@H]2CCCN2C(=S)Nc2ccc(O[C@H]3O[C@@H](C)[C@@H](O)[C@@H](OC)[C@@H]3O)cc2)C(C)C)C(=O)OCc2c1cc1n(c2=O)Cc2cc3ccccc3nc2-1 [Example 21] (X4-PLGLPV-X2)
- pIC50 [1]: 6.60
- pIC50 [2]: 7.00
- pIC50 [3]: 6.10

Compound: CC[C@]1(OC(=O)[C@H](NC(=O)[C@@H](CC(N)=O)NC(=O)[C@@H](CC(C)C)NC(=O)CNC(=O)[C@H](CC(C)C)NC(=O)C2CCCN2C(=O)CNC(=S)Nc2ccc(O[C@@H]3O[C@H](C)[C@H](O)[C@H](OC)[C@@H]3O)cc2)C(C)C)C(=O)OCc2c1cc1n(c2=O)Cc2cc3ccccc3nc2-1 (stereo partly drawn) [Example 27] (X6-G[ξP]LG[dL][dN][dV]-{Camptothecin(20R,20-O)})
- pIC50 [1]: 7.82
- pIC50 [2]: 7.60
- pIC50 [3]: 7.30

Compound: CC[C@@]1(OC(=O)[C@@H](NC(=O)[C@H](C)NC(=O)[C@H](CC(C)C)NC(=O)CNC(=O)[C@H](CC(C)C)NC(=O)[C@@H]2CCCN2C(=S)Nc2ccc(O[C@H]3O[C@@H](C)[C@@H](O)[C@@H](OC)[C@@H]3O)cc2)C(C)C)C(=O)OCc2c1cc1n(c2=O)Cc2cc3ccccc3nc2-1 [Example 22] (X4-PLGLAV-X2)
- pIC50 [1]: 7.15
- pIC50 [2]: 7.40
- pIC50 [3]: 6.60

Compound: CC[C@]1(OC(=O)C(NC(=O)[C@@H](CC(N)=O)NC(=O)[C@@H](CC(C)C)NC(=O)CNC(=O)[C@H](CC(C)C)NC(=O)C2CCCN2C(=S)Nc2ccc(O[C@@H]3O[C@H](C)[C@H](O)[C@H](OCC(N)=O)[C@@H]3O)cc2)C(C)C)C(=O)OCc2c1cc1n(c2=O)Cc2cc3ccccc3nc2-1 (stereo partly drawn) [Example 26] (X5-[ξP]LG[dL][dN][ξV]-{Camptothecin(20R,20-O)})
- pIC50 [1]: 7.05
- pIC50 [2]: 6.82
- pIC50 [3]: 6.35

Compound: CC[C@@]1(OC(=O)[C@@H](NC(=O)[C@H](CO)NC(=O)[C@H](CC(C)C)NC(=O)CNC(=O)[C@H](CC(C)C)NC(=O)[C@@H]2CCCN2C(=S)Nc2ccc(O[C@H]3O[C@@H](C)[C@@H](O)[C@@H](OC)[C@@H]3O)cc2)C(C)C)C(=O)OCc2c1cc1n(c2=O)Cc2cc3ccccc3nc2-1 [Example 17] (X4-PLGLSV-X2)
- pIC50 [1]: 7.15
- pIC50 [2]: 7.40
- pIC50 [3]: 6.70

Compound: CCC(C)[C@H](NC(=O)[C@H](CC(C)C)NC(=O)CNC(=O)[C@H](CC(C)C)NC(=O)[C@@H]1CCCN1C(=S)Nc1ccc(O[C@H]2O[C@@H](C)[C@@H](O)[C@@H](OC)[C@@H]2O)cc1)C(=O)N[C@H](C(=O)O[C@]1(CC)C(=O)OCc2c1cc1n(c2=O)Cc2cc3ccccc3nc2-1)C(C)C (stereo partly drawn) [Example 18] (X4-PLGL[Ile(3ξ)]V-X2)
- pIC50 [1]: 6.70
- pIC50 [2]: 7.00
- pIC50 [3]: 6.22

Compound: CC[C@]1(OC(=O)[C@H](NC(=O)[C@@H](CCCCN)NC(=O)[C@@H](CC(C)C)NC(=O)CNC(=O)[C@H](CC(C)C)NC(=O)[C@H]2CCCN2C(=S)Nc2ccc(O[C@@H]3O[C@H](C)[C@H](O)[C@H](OC)[C@@H]3O)cc2)C(C)C)C(=O)OCc2c1cc1n(c2=O)Cc2cc3ccccc3nc2-1 [Example 10] (X6-[dP]LG[dL][dK][dV]-{Camptothecin(20R,20-O)})
- pIC50 [1]: 7.15
- pIC50 [2]: 7.10
- pIC50 [3]: 6.82

Compound: CC[C@@]1(OC(=O)[C@@H](NC(=O)CNC(=O)[C@H](CC(C)C)NC(=O)CNC(=O)[C@H](CC(C)C)NC(=O)[C@@H]2CCCN2C(=S)Nc2ccc(O[C@H]3O[C@@H](C)[C@@H](O)[C@@H](OC)[C@@H]3O)cc2)C(C)C)C(=O)OCc2c1cc1n(c2=O)Cc2cc3ccccc3nc2-1 [Example 20] (X4-PLGLGV-X2)
- pIC50 [1]: 6.60
- pIC50 [2]: 6.92
- pIC50 [3]: 6.10

Compound: CC[C@@]1(OC(=O)[C@H](NC(=O)[C@@H](CC(N)=O)NC(=O)[C@@H](CC(C)C)NC(=O)CNC(=O)[C@H](CC(C)C)NC(=O)[C@H]2CCCN2C(=S)Nc2ccc(OC3O[C@H](CO)[C@H](O)[C@H](O)[C@@H]3O)cc2)C(C)C)C(=O)OCc2c1cc1n(c2=O)Cc2cc3ccccc3nc2-1 (stereo partly drawn) [Example 24] (X7-[dP]LG[dL][dN][dV]-X2)
- pIC50 [1]: 7.00
- pIC50 [2]: 6.70
- pIC50 [3]: 6.30

Compound: CC[C@@]1(OC(=O)[C@@H](NC(=O)[C@H](Cc2ccccc2)NC(=O)[C@H](CC(C)C)NC(=O)CNC(=O)[C@H](CC(C)C)NC(=O)[C@@H]2CCCN2C(=S)Nc2ccc(O[C@H]3O[C@@H](C)[C@@H](O)[C@@H](OC)[C@@H]3O)cc2)C(C)C)C(=O)OCc2c1cc1n(c2=O)Cc2cc3ccccc3nc2-1 [Example 16] (X4-PLGLFV-X2)
- pIC50 [1]: 7.10
- pIC50 [2]: 7.22
- pIC50 [3]: 6.60

Compound: CC[C@@]1(OC(=O)[C@@H](NC(=O)[C@H](CCC(=O)O)NC(=O)[C@H](CC(C)C)NC(=O)CNC(=O)[C@H](CC(C)C)NC(=O)[C@@H]2CCCN2C(=S)Nc2ccc(O[C@H]3O[C@@H](C)[C@@H](O)[C@@H](OC)[C@@H]3O)cc2)C(C)C)C(=O)OCc2c1cc1n(c2=O)Cc2cc3ccccc3nc2-1 [Example 19] (X4-PLGLEV-X2)
- pIC50 [1]: 6.40
- pIC50 [2]: 6.70
- pIC50 [3]: 5.82

Compound: CC[C@@]1(OC(=O)[C@H](NC(=O)[C@@H](Cc2c[nH]cn2)NC(=O)[C@@H](CC(C)C)NC(=O)CNC(=O)[C@H](CC(C)C)NC(=O)[C@H]2CCCN2C(=S)Nc2ccc(OC3O[C@H](C)[C@H](O)[C@H](OC)[C@@H]3O)cc2)C(C)C)C(=O)OCc2c1cc1n(c2=O)Cc2cc3ccccc3nc2-1 (stereo partly drawn) [Example 11] (X1-[dP]LG[dL][dH][dV]-X2)
- pIC50 [1]: 7.10
- pIC50 [2]: 6.70
- pIC50 [3]: 6.52
